# Key:
# physchem [1] = settings: pH 7.4, aqueous buffer, Solubility Dulbecco's PBS pH 7.4
# [2] = s9, 60 min, 1 μM
# Procedure: The metabolic stability was determined used human liver S9 homogenate that including both microsomal and cytosolic enzyme activities. The test compound was diluted in methanol (0.625%) and acetonitrile (0.625%) at the concentration 1 μM and incubated in the human liver pool (protein=1 mg/mL) during 60 min at 37° C. Peak areas corresponding to all analytes (metabolic products) were determined by HPLC-MS/MS. Areas were recorded and ratios of peak areas of analytes to that of internal standard for each analyte were determined. The ratio of precursor compound remaining after 60 minutes and the amount remaining at time zero, expressed as percent, are reported as metabolic stability. Higher values mean higher metabolic stability.
# [3] = test system: FDC-P1, normal mouse myelogeous stem cells; settings: 24 h
# [4] = test system: AML-12, normal mouse liver cells; settings: 24 h
# physchem [5] = settings: pH 7.4, log D n-Octanol-Dulbecco's PBS pH 7.4
# [6] = test system: H9c2 (2-1), normal rat cardiac muscle cells; settings: 24 h
# [7] = test system: NRK-52E, normal rat kidney cells; settings: 24 h
# MEL-28 = assay: cells; type: cell-based; settings: Homo sapiens, SK-MEL-28, 48 h
# How it was run: (§1)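 Seeding density 5×10^3 cells/well; attachment 18 h in drug-free medium; exposure 48 h, 10 to 10^−8 μg/ml. Fixation cold TCA 60 min at 4° C, SRB 10 min, absorbance 490 nm.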
# A498 = assay: cells; type: cell-based; settings: Homo sapiens
# How it was run: as §1
# DU145 = assay: cells; type: cell-based; settings: Homo sapiens, DU-145, 48 h
# How it was run: as §1
# A549 = assay: cells; type: cell-based; settings: Homo sapiens, A549, 48 h
# How it was run: as §1
# SW-620 = assay: cells; type: cell-based; settings: Homo sapiens
# How it was run: as §1
# MCF = assay: cells; type: cell-based; settings: Homo sapiens
# How it was run: as §1
# MB231 = assay: cells; type: cell-based; settings: Homo sapiens
# How it was run: as §1
# HT29 = assay: cells; type: cell-based; settings: Homo sapiens, HT-29, 48 h
# How it was run: as §1
# [8] = test system: L8, normal rat skeletal muscle cells; settings: 24 h
# CYP3A4 = CYP3A4 (Homo sapiens, UniProt P08684); assay: in vitro; settings: CYP3A4 (% inhibition)
# CYP3A4, sequence (P08684 whole entry): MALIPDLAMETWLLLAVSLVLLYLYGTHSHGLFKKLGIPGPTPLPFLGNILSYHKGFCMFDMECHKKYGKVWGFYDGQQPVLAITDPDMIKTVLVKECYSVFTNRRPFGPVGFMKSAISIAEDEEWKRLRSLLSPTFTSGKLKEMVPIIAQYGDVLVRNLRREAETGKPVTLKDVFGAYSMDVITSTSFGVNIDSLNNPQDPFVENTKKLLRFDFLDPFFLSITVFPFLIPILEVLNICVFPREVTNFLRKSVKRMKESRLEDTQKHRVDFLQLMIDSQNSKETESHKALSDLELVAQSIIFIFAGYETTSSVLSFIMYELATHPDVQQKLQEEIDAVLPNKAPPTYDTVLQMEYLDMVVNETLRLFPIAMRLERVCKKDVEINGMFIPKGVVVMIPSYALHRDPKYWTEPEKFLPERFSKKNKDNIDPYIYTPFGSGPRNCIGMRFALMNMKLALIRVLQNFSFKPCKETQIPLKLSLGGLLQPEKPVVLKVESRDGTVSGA
smiles,measurement,setting,value
COc1c(C)cc2c(c1O)[C@@H]1C3[C@@H]4SC[C@]5(NCCc6c5[nH]c5ccc(C)cc65)C(=O)COC[C@@H](c5c6c(c(C)c(OC(C)=O)c54)OCO6)N3[C@@H](O)[C@H](C2)N1C (stereo partly drawn) [Compound 30],solubility,physchem [1],2.24 µM
same,Human Liver S9 Metabolic Stability (% remaining),[2],6 % remaining
same,Myelo,[3],7.58E−09
same,Liver,[4],2.72E−07
same,logD at 60 min,physchem [5],> 4.9
same,Heart,[6],5.06E−07
same,Kidney,[7],4.19E−09
same,GI50,"MEL-28; MEL-28, 48 hours exposure, SRB",0.026 nM
same,IC (TGI),"MEL-28; MEL-28, 48 hours exposure, SRB",0.13 nM
same,CC50,"MEL-28; read-out: LC50, MEL-28, 48 hours exposure, SRB",0.65 nM
same,CC50,"A498; A498, 48 h, read-out: LC50",2.6 nM
same,GI50,"A498; A498, 48 hours exposure, SRB",0.13 nM
same,IC (TGI),"A498; A498, 48 hours exposure, SRB",0.52 nM
same,GI50,"DU145; DU145, 48 hours exposure, SRB",0.013 nM
same,IC (TGI),"DU145; DU145, 48 hours exposure, SRB",0.039 nM
same,CC50,"DU145; read-out: LC50, DU145, 48 hours exposure, SRB",0.13 nM
same,GI50,"A549; A549, 48 hours exposure, SRB, read-out: GI50",0.039 nM
same,IC (TGI),"A549; A549, 48 hours exposure, SRB, read-out: TGI",0.26 nM
same,CC50,"A549; read-out: LC50, A549, 48 hours exposure, SRB",1.04 nM
same,CC50,"SW-620; SW-620, 48 h, read-out: LC50",1.3 nM
same,IC (TGI),"SW-620; SW-620, 48 hours exposure, SRB",0.39 nM
same,GI50,"SW-620; SW-620, 48 hours exposure, SRB, read-out: GI50",0.026 nM
same,CC50,"MCF; 48 h, read-out: LC50",2.6 nM
same,GI50,"MCF; MCF, 48 hours exposure, SRB",0.26 nM
same,IC (TGI),"MCF; MCF, 48 hours exposure, SRB, read-out: TGI",0.39 nM
same,CC50,"MB231; 48 h, read-out: LC50",3.9 nM
same,GI50,"MB231; MB231, 48 hours exposure, SRB",0.0026 nM
same,IC (TGI),"MB231; MB231, 48 hours exposure, SRB, read-out: TGI",0.13 nM
same,GI50,"HT29; HT29, 48 hours exposure, SRB",0.104 nM
same,IC (TGI),"HT29; HT29, 48 hours exposure, SRB",0.39 nM
same,CC50,"HT29; read-out: LC50, HT29, 48 hours exposure, SRB",1.04 nM
same,Skeletal,[8],2.51E−08
same,"inhibition at 30 min, 10 µM",CYP3A4,25%

# — patent US7763615B2, “Ecteinascidin analogs for use as antitumour agents” (priority 2001, dated 2010)
